Test results published in patent US4327097A, “Novel penicillins” (Toyama Chemical Co., Ltd., priority 1974, dated 1982).
Converted amounts (≈) assume the structure as drawn.

Key:
[1] = tested on: Staphylococcus aureus; experiment: MIC against clinical isolates; assay type: cell-based; conditions: Table 6-1, clinical isolate; unit assumed
[2] = tested on: Proteus vulgaris; experiment: MIC against clinical isolates; assay type: cell-based; conditions: Table 6-5, clinical isolate; unit assumed
[3] = tested on: Proteus rettgeri; experiment: MIC against clinical isolates; assay type: cell-based; conditions: Table 6-5, clinical isolate; unit assumed
[4] = tested on: Klebsiella pneumoniae; experiment: MIC against clinical isolates; assay type: cell-based; conditions: Table 6-4, clinical isolate; unit assumed
[5] = tested on: Staphylococcus aureus 209p; experiment: MIC, plate method, standard strains; assay type: cell-based; conditions: Table 4, standard strain; unit assumed
Summary of the method: (§1)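 Test compound was incorporated into Heart infusion agar at pH 7.4, plates were inoculated with 10^4 cells each (suspension at 10^6 cells/ml), and the minimum inhibitory concentration was recorded.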

[6] = tested on: Escherichia coli NIHJ; experiment: MIC, plate method, standard strains; assay type: cell-based; conditions: Table 4, standard strain; unit assumed
Summary of the method: as §1

[7] = tested on: Pseudomonas aeruginosa I.F.O.; experiment: MIC, plate method, standard strains; assay type: cell-based; conditions: Table 4, standard strain; unit assumed
Summary of the method: as §1

[8] = tested on: Proteus vulgaris 3027; experiment: MIC, plate method, standard strains; assay type: cell-based; conditions: Table 4, standard strain; unit assumed
Summary of the method: as §1

[9] = tested on: Klebsiella pneumoniae; experiment: MIC, plate method, standard strains; assay type: cell-based; conditions: Table 4, standard strain; unit assumed
Summary of the method: as §1

[10] = tested on: Proteus morganii; experiment: MIC against clinical isolates; assay type: cell-based; conditions: Table 6-5, clinical isolate; unit assumed
[11] = tested on: Proteus mirabilis; experiment: MIC against clinical isolates; assay type: cell-based; conditions: Table 6-5, clinical isolate; unit assumed
[12] = tested on: Pseudomonas aeruginosa; experiment: MIC against clinical isolates; assay type: cell-based; conditions: unit assumed; for MIC Pseudomonas aeruginosa GN / MIC Pseudomonas aeruginosa GN4 / MIC Pseudomonas aeruginosa GN 82 / MIC Pseudomonas aeruginosa GN 221 / MIC Pseudomonas aeruginosa GN 376 / MIC Pseudomonas aeruginosa GN 1035 / MIC Pseudomonas aeruginosa GN 1091 / MIC Pseudomonas aeruginosa GN 2565: Table 6-3, clinical isolate; for MIC Pseudomonas aeruginosa GN: strain number not given; for MIC Pseudomonas aeruginosa S-1: Table 6-4, clinical isolate
[13] = target: T1, β-lactamase, Proteus vulgaris GN 76 (Proteus vulgaris, UniProt P52664); experiment: Resistant activity against β-lactamase, iodometric assay; assay type: biochemical; conditions: control Cephalorizine = 100
T1 construct: By using the supernatant of enzyme fluid; endogenous in cells; host or cells: Proteus vulgaris GN 76 (penicillin G-induced cells, sonicated, 15,000 r.p.m. supernatant)
Procedure: (§2) (4) Resistant activity of each cephalosporin compound against β-lactamase, Proteus vulgaris GN 76 and Escherichia freundii GN 346:
(§3) The resistant activity of each cephalosporin compound against β-lactamase was measured in the manner described below.
(§4) β-lactamase was prepared from Proteus vulgaris GN 76 and Escherichia freundii GN 346. 10 ml of an overnight culture in Heart Infusion broth was diluted with 100 ml of a medium containing 2 g of yeast extract, 10 g of polypeptone, 2 g of glucose, 7 g of disodium hydrogen phosphate, 2 g of potassium dihydrogen phosphate, 1.2 g of ammonium sulfate and 0.4 g of magnesium sulfate, per liter, and incubated with shaking at 37° C. After incubation of 2 hrs, Penicillin G (50 μg/ml) was added as the inducer, and further incubated for 2 hrs. The resulting cells were collected by centrifugation (5,000 r.p.m.×10 min.) and washed two times with 0.1 M phosphate buffer (pH 7.0). Subsequently, the cells were subjected to sonication (20 KHz, 5 min.) and then centrifuged at 15,000 r.p.m. for 60 min. By using the supernatant of enzyme fluid, the stability of each compound against β-lactamase was determined by the iodometric assay method. Each numeral shown in Table 7-2 is a relative activity value calculated by assuming as 100 the activity of the control Cephalorizine.

[14] = target: β-lactamase, Escherichia freundii GN 346 (Citrobacter freundii, UniProt Q46041); experiment: as above; assay type: biochemical; conditions: control Cephalorizine = 100
Procedure: as §2, §3, §4

[15] = tested on: Escherichia coli; experiment: MIC against clinical isolates; assay type: cell-based; conditions: Table 6-2, clinical isolate; unit assumed

β-lactamase, Escherichia freundii GN 346, sequence (Q46041 entry or part of it): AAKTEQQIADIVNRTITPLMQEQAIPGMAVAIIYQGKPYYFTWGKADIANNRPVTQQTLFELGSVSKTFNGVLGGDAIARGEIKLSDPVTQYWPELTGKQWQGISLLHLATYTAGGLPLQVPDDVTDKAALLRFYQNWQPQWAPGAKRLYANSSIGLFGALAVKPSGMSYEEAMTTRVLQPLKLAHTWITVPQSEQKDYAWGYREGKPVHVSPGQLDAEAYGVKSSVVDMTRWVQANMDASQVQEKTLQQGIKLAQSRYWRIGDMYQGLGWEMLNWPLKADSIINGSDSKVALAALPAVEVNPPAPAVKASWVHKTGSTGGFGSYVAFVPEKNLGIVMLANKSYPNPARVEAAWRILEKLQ
T1 sequence (P52664 30-300): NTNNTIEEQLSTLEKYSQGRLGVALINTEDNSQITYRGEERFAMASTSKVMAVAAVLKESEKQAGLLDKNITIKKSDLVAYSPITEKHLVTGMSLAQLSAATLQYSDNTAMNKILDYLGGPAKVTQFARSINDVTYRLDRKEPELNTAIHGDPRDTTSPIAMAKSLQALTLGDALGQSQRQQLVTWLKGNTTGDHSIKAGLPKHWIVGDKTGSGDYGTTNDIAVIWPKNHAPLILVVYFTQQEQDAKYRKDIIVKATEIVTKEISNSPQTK

| SMILES | MIC Staphylococcus aureus F-1 [1] [µg/mL] | MIC Staphylococcus aureus MS 8588 [1] [µg/mL] | MIC Staphylococcus aureus MS 8596 [1] [µg/mL] | MIC Staphylococcus aureus MS 8619 [1] [µg/mL] | MIC Staphylococcus aureus MS 8684 [1] [µg/mL] | MIC Proteus vulgaris [2] [µg/mL] | MIC Proteus rettgeri [3] [µg/mL] | MIC Klebsiella pneumoniae GN 917 [4] [µg/mL] | MIC Klebsiella pneumoniae GN 4081 [4] [µg/mL] | MIC Staphylococcus aureus 209p [5] [µg/mL] | MIC Escherichia coli NIHJ [6] [µg/mL] | MIC Pseudomonas aeruginosa I.F.O. [7] [µg/mL] | MIC Proteus vulgaris 3027 [8] [µg/mL] | MIC Klebsiella pneumoniae [9] [µg/mL] | MIC Proteus morganii [10] [µg/mL] | MIC Proteus mirabilis [11] [µg/mL] | MIC Pseudomonas aeruginosa GN [12] [µg/mL] | MIC Pseudomonas aeruginosa GN4 [12] [µg/mL] | MIC Pseudomonas aeruginosa GN 82 [12] [µg/mL] | MIC Pseudomonas aeruginosa GN 221 [12] [µg/mL] | other results |
| --- | --- | --- | --- | --- | --- | --- | --- | --- | --- | --- | --- | --- | --- | --- | --- | --- | --- | --- | --- | --- | --- |
| CCCCN1CCN(C(=O)NC(C(=O)NC2C(=O)N3C(C(=O)O)=C(CSc4nnnn4C)CSC23)c2ccccc2)C(=O)C1=O (single isomer, unassigned) [Compound No. 73] | 1.56 (≈ 2.37 µM) | 1.56 (≈ 2.37 µM) | 3.13 (≈ 4.76 µM) | 1.56 (≈ 2.37 µM) | 1.56 (≈ 2.37 µM) | 0.78 (≈ 1.19 µM) | 3.13 (≈ 4.76 µM) | 0.78 (≈ 1.19 µM) | 1.56 (≈ 2.37 µM) | 1.57 (≈ 2.39 µM) | < 0.1 | 25 (≈ 38 µM) | 1.57 (≈ 2.39 µM) | 0.2 (≈ 0.304 µM) | 0.78 (≈ 1.19 µM) | 0.39 (≈ 0.593 µM) | 12.5 (≈ 19 µM) | 12.5 (≈ 19 µM) | 12.5 (≈ 19 µM) | 12.5 (≈ 19 µM) | MIC Pseudomonas aeruginosa GN 376 [12]: 12.5 µg/mL (≈ 19 µM); MIC Pseudomonas aeruginosa GN 1035 [12]: 50 µg/mL (≈ 76 µM); MIC Pseudomonas aeruginosa GN 1091 [12]: 12.5 µg/mL (≈ 19 µM); MIC Pseudomonas aeruginosa GN 2565 [12]: 25 µg/mL (≈ 38 µM); MIC Pseudomonas aeruginosa S-1 [12]: 50 µg/mL (≈ 76 µM); Relative activity (%) against β-lactamase, Pr. vulgaris GN 76 [13]: 4%; Relative activity (%) against β-lactamase, E. freundii GN 346 [14]: 0.1%; MIC Escherichia coli GN 3435 [15]: 0.78 µg/mL (≈ 1.19 µM); MIC Escherichia coli GN 3452 [15]: 0.78 µg/mL (≈ 1.19 µM); MIC Escherichia coli GN 3465 [15]: 1.56 µg/mL (≈ 2.37 µM); MIC Escherichia coli K-2 [15]: 1.56 µg/mL (≈ 2.37 µM); MIC Escherichia coli K-4 [15]: 0.78 µg/mL (≈ 1.19 µM) |
| CCN1CCN(C(=O)NC(C(=O)NC2C(=O)N3C(C(=O)O)=C(CSc4nnnn4C)CSC23)c2ccc(O)cc2)C(=O)C1=O (stereo not shown) [Compound No. 72] | 1.56 (≈ 2.42 µM) | 1.56 (≈ 2.42 µM) | 3.13 (≈ 4.85 µM) | 1.56 (≈ 2.42 µM) | 1.56 (≈ 2.42 µM) | 0.39 (≈ 0.604 µM) | 1.56 (≈ 2.42 µM) | 0.2 (≈ 0.31 µM) | 1.56 (≈ 2.42 µM) | < 1.57 | < 0.1 | 6.25 (≈ 9.68 µM) | 0.4 (≈ 0.62 µM) | < 0.1 | 0.78 (≈ 1.21 µM) | 0.78 (≈ 1.21 µM) | 12.5 (≈ 19.4 µM) | 12.5 (≈ 19.4 µM) | 6.25 (≈ 9.68 µM) | 6.25 (≈ 9.68 µM) | MIC Pseudomonas aeruginosa GN 376 [12]: 6.25 µg/mL (≈ 9.68 µM); MIC Pseudomonas aeruginosa GN 1035 [12]: 25 µg/mL (≈ 38.7 µM); MIC Pseudomonas aeruginosa GN 1091 [12]: 6.25 µg/mL (≈ 9.68 µM); MIC Pseudomonas aeruginosa GN 2565 [12]: 25 µg/mL (≈ 38.7 µM); MIC Pseudomonas aeruginosa S-1 [12]: 12.5 µg/mL (≈ 19.4 µM); Relative activity (%) against β-lactamase, Pr. vulgaris GN 76 [13]: 7%; Relative activity (%) against β-lactamase, E. freundii GN 346 [14]: 0.2%; MIC Escherichia coli GN 3435 [15]: 0.1 µg/mL (≈ 0.155 µM); MIC Escherichia coli GN 3452 [15]: 0.2 µg/mL (≈ 0.31 µM); MIC Escherichia coli GN 3465 [15]: 1.56 µg/mL (≈ 2.42 µM); MIC Escherichia coli K-2 [15]: 0.39 µg/mL (≈ 0.604 µM); MIC Escherichia coli K-4 [15]: 0.39 µg/mL (≈ 0.604 µM) |
